Assay results published in US7763640B2, “Substituted oxyguanidines” (Bayer CorpScience AG, priority 2004, dated 2010).

Tests used:
[1] = tested on: white fly (Bemisia tabaci, resistant strain); assay: Bemisia tabaci test, resistant strain, Example E; assay type: in vivo; conditions: cotton leaf sections, immersion
Protocol: (§1) To prepare a suitable active compound preparation 1 part by weight of the active compound is mixed with the given amount of solvent and the given amount of emulsifier and the concentrate is diluted to the desired concentration with water containing emulsifier.
Leaf sections of cotton plants (Gossypium hirsutum) are treated by immersion in the active compound preparation at the desired concentration and after drying of the coating are infected with adults of the white fly (Bemisia tabaci, resistant strain).
After the desired time the death rate in % is determined. Here 100% means that all animals were killed; 0% means that no animals were killed.

[2] = tested on: cotton aphid (Aphis gossypii); assay: Aphis gossypii test, soil application, Example D; assay type: in vivo; conditions: cotton plant
Protocol: (§2) To prepare a suitable active compound preparation 1 part by weight of the active compound is mixed with the given amount of solvent and the given amount of emulsifier and the concentrate is diluted to the desired concentration with water.
The active compound preparation is mixed with soil. The concentration given relates to the amount of active compound per unit volume soil (mg/l=ppm). The treated soil is filled into pots and planted with one cotton plant (Gossypium hirsutum). After a week infection is carried out with the cotton aphid (Aphis gossypii).
(§3) After the desired time the death rate in % is determined. Here 100% means that all aphids were killed; 0% means that no aphids were killed.

[3] = tested on: green peach aphid (Myzus persicae); assay: Myzus persicae test, soil application, Example C; assay type: in vivo; conditions: pepper plant
Protocol: as §2
The active compound preparation is mixed with soil. The concentration given relates to the amount of active compound per unit volume soil (mg/l=ppm). The treated soil is filled into pots and planted with one pepper plant (Capsicum annuum). After one week infection is carried out with the green peach aphid (Myzus persicae).
(§4) After the desired time the activity in % is determined. Here 100% means that all aphids were killed; 0% means that no aphids were killed.

physchem = conditions: pH 2
[4] = tested on: green peach aphid (Myzus persicae); assay: Myzus persicae test (cabbage leaves, immersion), Example A; assay type: in vivo; conditions: for Death rate in % after 6d: 1000 ppm, cabbage leaves (Brassica oleracea)
Protocol: as §2
Cabbage leaves (Brassica oleracea) that are highly infested with the green peach aphid (Myzus persicae) are treated by immersion in the active compound preparation at the desired concentration.
as §3

[5] = tested on: green peach aphid (Myzus persicae); assay: Myzus test, spray treatment, Example F; assay type: in vivo; conditions: 500 g a.i./ha, China cabbage leaf sections
Protocol: as §1
China cabbage leaf sections (brassica pekinensis) that are infected with all stages of the green peach aphid (Myzus persicae) are sprayed with an active compound preparation at the desired concentration.
as §4

[6] = tested on: mixed thrips population (Frankliniella occidentalis); assay: Frankliniella occidentalis test, Example H; assay type: in vivo; conditions: 100 ppm, cotton plants, spraying
Protocol: as §1
Cotton plants (Gossypium hirsutum) are treated by spraying with the active compound preparation at the desired concentration and infected with a mixed thrips population (Frankliniella occidentalis).
After the desired time the death rate in % is determined. Here 100% means that all thrips were killed; 0% means that no thrips were killed.

[7] = tested on: fall army worm (Spodoptera frugiperda); assay: Spodoptera frugiperda test, Example G; assay type: in vivo; conditions: 500 g a.i./ha, cabbage leaves, immersion, caterpillars
Protocol: as §1
Cabbage leaves (Brassica oleracea) are treated by immersion in the active compound preparation at the desired concentration and infected with caterpillars of the fall army worm (Spodoptera frugiperda) while the leaves are still wet.
After the desired time the death rate in % is determined. Here 100% means that all caterpillars were killed; 0% means that no caterpillars were killed.

[8] = tested on: green peach aphid (Myzus persicae); assay: Myzus test, spray treatment, Example B; assay type: in vivo; conditions: Chinese cabbage leaves
Protocol: To prepare a suitable active compound preparation 1 part by weight of the active compound is mixed with the given amount of solvent and the given amount emulsifier and the concentrate is diluted to the desired concentration with water.
Chinese cabbage leaves (Brassica pekinensis) infested with all stages of the green peach aphid (Myzus persicae) were sprayed with an active compound preparation at the desired concentration.
as §3

CON/C(=N/[N+](=O)[O-])NCc1cnc(Cl)s1 [Example I-5]
Death rate in % after 3d ([1]; 1000 ppm, after 3 d, adults): 93% | activity in Bemisia tabaci test, resistant strain [1]: good activity | Death rate in % after 7d ([2]; 0.25 ppm (mg/l soil)): 80% | activity in Aphis gossypii test, soil application [2]: good activity | Death rate in % after 7d ([3]; 0.25 ppm (mg/l soil)): 85% | activity in Myzus persicae test, soil application [3]: good activity | logP (physchem): 1.13 | Death rate in % after 6d [4]: 98% | activity in Myzus persicae test ([4]; cabbage leaves): good activity

CON/C(=N\[N+](=O)[O-])NCc1ccc(Cl)nc1 [Example I-1, N-methoxy-N′-(2-chloropyrid-5-ylmethyl)nitroguanidine]
Death rate in % after 7d ([2]; 8 ppm (mg/l soil)): 100% | Death rate in % after 7d ([3]; 8 ppm (mg/l soil)): 100% | Death rate in % after 6d [4]: 98%

CON/C(=N\[N+](=O)[O-])N(C)Cc1ccc(Cl)nc1
Activity in % after 5d [5]: 100%

CON/C(=N/[N+](=O)[O-])NCc1cnc(Cl)s1 [drawing 35]
Death rate in % after 14d [6]: 90%

CON/C(=N\C#N)NCc1cnc(Cl)s1
Death rate in % after 7d [7]: 100%

CON/C(=N\C#N)NCc1ccc(Cl)nc1
Activity in % after 5d [5]: 100%

CCON/C(=N/[N+](=O)[O-])NCc1ccc(Cl)nc1 [Example I-2]
Death rate in % after 4d ([8]; 500 ppm, after 4 d): 100% | activity in Myzus test, spray treatment [8]: good activity
